Measurements as given in patent US20090019923A1, “Method for measuring octanol-water distribution coefficients of surfactants” (Clariant International Ltd., priority 2007, published 2009).
Several values for one entry are separate records, joined by “and”; a condition that tells them apart may be missing. Equal values may be shown once.

Assay: octanol-water distribution coefficient by slow stirring, evaporation/re-dissolution and surface tension vs. concentration calibration curve
Settings: for conc. Caq (concentration in the aqueous layer): after equilibration with octanol, initial 1 g/L; for logP: initial 1 g/L in aqueous layer, residue in 0.2 M KCl, single samples of replicates A, B
Protocol: Aqueous surfactant solution is equilibrated with octanol. The concentration of surfactant in the aqueous phase after equilibration is determined from the surface tension using a calibration curve. Interference from octanol is prevented by first removing it by evaporation and re-dissolution. The concentration of surfactant in the octanol layer is calculated from the change in concentration in the aqueous layer. Alternatively an aliquot of the octanol layer can be evaporated and re-dissolved in water to determine the concentration directly via surface tension.
Preferably, equal or approximately equal volumes of water and octanol are used. The preferred method is stirring slowly for several hours. The minimum stirring time required will depend on the system and can, if necessary, be determined by running experiments with different stirring times. […] The stirring speed must be kept low enough for there to be two distinct phases during the whole course of the experiment. Other types of agitation (e.g. shaking, rolling, vibration) may also be used, provided they are gentle enough to avoid any mixing of the phases.
Evaporating an aliquot of the aqueous phase and re-dissolving the residue in water or electrolyte solution. This removes octanol, which is surface active and would therefore interefere with the subsequent concentration determination via surface tension. It is covenient to take an aliquot of between 1 and 10 mL and re-dissolve in a larger volume of water (20-500 mL).
The surface tension may be measured by any convenient method, for example, the plate, ring or bubble pressure methods. Preferably a method should be used which allows an equilibration time of several minutes e.g. the plate method.
The calibration curve is obtained by measuring the surface tension of the surfactant at various concentrations. Exactly the same procedure should be used as for the re-dissolved residue solution. If an electrolyte solution is used in the dilution step, it must also be used for the calibration curve.
P=Vaq(c0−caq)/(Voctcaq) (2)
P=Vaq(c0−caq)/(Voctcnon-micellised) (3) • For cmc<caq cnon-micellised=cmc • For cmc≧caq cnon-micellised=caq
Equilibration experiment: 100 mL of a 1 g/L aqueous solution of the surfactant and 100 mL octanol were placed in a conical flask. The two-phase system was stirred for eight hours on a magnetic stirrer. The stirring speed (100 rpm) was low enough for there to be two distinct layers. After the stirrer was switched off, the system was allowed to stand overnight. Then a 2 mL sample of the aqueous phase was placed in a tensiometer glass and evaporated to dryness in a drying cabinet. The residue was redissolved in 50 mL of 0.2 M KCl. The surface tension of this solution was measured with the Pt plate method. The solution was then diluted five times with 0.2 M KCl and the surface tension measured again. The concentration of surfactant was determined by comparison with a calibration curve. A duplicate experiment was run to check the reproducibility.
Equilibration experiment: 100 mL of a 1 g/L aqueous solution of the surfactant and 100 mL octanol were placed in a conical flask. The two-phase system was stirred for eight hours on a magnetic stirrer. The stirring speed (100 rpm) was low enough for there to be two distinct layers. After the stirrer was switched off, the system was allowed to stand overnight. Then a 2 mL sample of the aqueous phase was placed in a tensiometer glass evaporated to dryness in a drying cabinet. The residue was redissolved in 50 mL of 0.2 M KCl. The surface tension of this solution was measured with the Pt plate method. The concentration of surfactant was determined by comparison with a calibration curve.

Row | conc. Caq (concentration in the aqueous layer) (dilution factor 25) | conc. Caq (concentration in the aqueous layer) (dilution factor 125) | logP (100 mL water/100 mL octanol, stirred 8 h, dilution factor 25) | logP (100 mL water/100 mL octanol, stirred 8 h, dilution factor 125) | logP mean (initial concentration in the aqueous layer 1 g/L, mean of all samples and dilutions) | Substance | Non-micellised surfactant cnon-micellised (aqueous layer at equilibrium, cmc greater than caq) | Equilibrium concentration in aqueous layer, caq (original concentration 1 g/L, 100 mL water/100 mL octanol, stirred 8 h) | Concentation in octanol layer, c0-caq (original concentration 1 g/L, from mass balance)
1 | – | – | – | – | – | C10-C13 linear alkylbenzene sulfonate | 0.16 g/L | 0.16 g/L | 840 µg/mL
2 | 550 µg/mL and 630 µg/mL and 600 µg/mL | 570 µg/mL and 590 µg/mL and 630 µg/mL | −0.09 and −0.22 and −0.18 | −0.12 and −0.15 and −0.22 | −0.17 | C22-amidoamine betaine | – | – | –
